Laboratory results as given in patent publication US7232852B2, “Photopolymerizable compositions that include alicyclic/aromatic dioxiranes and novel dioxiranyl tetraoxaspiro [5.5] undecanes” (Curators of the University of Missouri, priority 2002, dated 2007).

Assay: Photoinitiated solution homopolymerization of BMOCHM-TOSU (FTIR, gel point)
Type: physicochemical
Conditions: post irradiation, 20 wt % in methylene chloride
Description: The effect of irradiation time on the photoinitated homopolymerization of BMOCHM-TOSU monomer (20 wt % in methylene chloride) was evaluated by gel point determination and by FTIR spectroscopy. Selected IR absorption bands in the reaction mixture characteristic of hydroxyl, carbonyl and oxirane groups were monitored as a function of irradiation time. […] These observations indicate the possibility of homopolymer formation. The mixture gelled 1.5 min post irradiation.
With `CC1CC2OC2CC1CC1COC2(OC1)OCC(CC1CC3OC3CC1C)CO2` (stereo not shown) [BMOCHM, 3,9-bis[(4-methyl-7-oxabicyclo[4.1.0]hept-3-yl)methyl]-1,5,7,11-tetraoxaspiro[5,5]undecane] the “gel point (mixture gelled)” value was 1.5 min.

Assay: Solubility of TOSUs in oxirane coreactant systems
Type: physicochemical
Conditions: 25° C.
With `CC1CC2OC2CC1CC1COC2(OC1)OCC(CC1CC3OC3CC1C)CO2` (stereo not shown) [BMOCHM, 3,9-bis[(4-methyl-7-oxabicyclo[4.1.0]hept-3-yl)methyl]-1,5,7,11-tetraoxaspiro[5,5]undecane] the “Solubility in oxirane base BOCPE” value was less than 10 wt %, the “Solubility in oxirane base UVR 6105” value was 30 wt % and the “Solubility in oxirane base UVR 6105/PTHF (80/20)” value was 25 wt %.
For `C1CC2OC2CC1CC1COC2(OC1)OCC(CC1CCC3OC3C1)CO2` (stereo not shown) [BOCHM, 3,9-bis[(7-oxabicyclo[4.1.0]hept-3-yl)methyl]-1,5,7,11-tetraoxaspiro[5.5]undecane], the “Solubility in oxirane base BOCPE” value was less than 10 wt %, the “Solubility in oxirane base UVR 6105” value was 30 wt % and the “Solubility in oxirane base UVR 6105/PTHF (80/20)” value was 25 wt %.
In the case of `C1OC2(OCC13CC1OC1C3)OCC1(CO2)CC2OC2C1` (stereo not shown) [DOTSHX, 6,24-dioxatrispiro[bicyclo[3.1.0]hexane-3.5′-1,3-dioxane-2.2′-1,3-dioxane-5″3′″-bicyclo[3.1.0]hexane]], the “Solubility in oxirane base BDDGE/PTHF (80/20)” value was less than 5 wt % and the “Solubility in oxirane base BOCPE” value was less than 5 wt %.
In the case of `C1CC2(COC3(OC2)OCC2(CCC4OC4C2)CO3)CC2OC12` (stereo not shown) [DOTSHH, 7,26-dioxatrispiro[bicycle[4.1.0]heptane-3,5′-1,3-dioxane-2′2″-1,3-dioxane-5″,4′″-bicyclo[4.1.0]heptane]], the “Solubility in oxirane base BDDGE/PTHF (80/20)” value was 5 wt %, the “Solubility in oxirane base BOCPE” value was 10 wt % and the “Solubility in oxirane base UVR 6105/PTHF (80/20)” value was less than 5 wt %.
In the case of `C1=CCC(CC2COC3(OC2)OCC(CC2CC=CCC2)CO3)CC1` (stereo not shown) [BCHEM, 3,9-Bis(cyclohex-3-enylmethyl)-1,5,7,11-tetraoxaspiro[5,5]undecane], the “Solubility in oxirane base UVR 6105” value was 15–25 wt % and the “Solubility in oxirane base UVR 6105/PTHF (80/20)” value was 25 wt %.
With `CCC1(CC)COC2(COC3(CCC4OC4C3)OC2)OC1` (stereo not shown) [DEODSH, 5,5-diethyl-19-oxdispiro[1,3-dioxane-2,5′-1,3-dioxane-2′,3″-bicyclo[4.1.0]heptane]] the “Solubility in oxirane base BOCPE” value was greater than 10 wt % and the “Solubility in oxirane base UVR 6105/PTHF (80/20)” value was 40 wt %.
